We go through 37 molecules from patent publication US9745328B2, “Flap modulators” (JANSSEN PHARMACEUTICA NV, priority 2013, dated 2017).

Structures can show the parent of a compound that is named as a salt. Where only a bound is given, the exact number is not on record here.

Chain of human FLAP (P20292 whole entry): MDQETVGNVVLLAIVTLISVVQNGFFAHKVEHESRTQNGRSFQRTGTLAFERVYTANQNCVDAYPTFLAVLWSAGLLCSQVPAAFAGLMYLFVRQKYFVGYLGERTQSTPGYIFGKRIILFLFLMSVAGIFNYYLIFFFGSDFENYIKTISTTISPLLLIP

One assay concerns the target human FLAP (Homo sapiens (Human), UniProt P20292). The experiment in a line: FLAP binding assay (HTRF format). Particulars: Table 6 (additional runs), human FLAP wild type. How it is done: The ability of the compounds of the present invention to treat a FLAP-mediated disease and/or disorder, or associated symptoms or complications thereof, was determined using the following procedures. Binding assay data represent the average value obtained from two different assay plates, with samples run in duplicate on each plate. Human whole blood assay data represent a single replicate on an assay plate using whole blood from at least one healthy donor.
Data are expressed as a HTRF ratio.
As a reminder, the Ki is a measure of affinity in units of concentration, obtained from inhibition or displacement. Consider `Nc1cnc(-c2ccc(-c3ccccc3S(=O)(=O)NCC3CC3)cc2F)cn1` [Example 90, 4′-(5-Aminopyrazin-2-yl)-N-(cyclopropylmethyl)-3′-fluorobiphenyl-2-sulfonamide], for which the affinity, expressed as Ki, was 0.9 nM.

`CC(C)(C)OC(=O)N1CC(O)(CNS(=O)(=O)c2ccccc2-c2ccc(-c3ccc(N)nc3)c(F)c2)C1` [Example 357, tert-butyl 3-((4′-(6-aminopyridin-3-yl)-3′-fluoro-[1,1′-biphenyl]-2-ylsulfonamido)methyl)-3-hydroxyazetidine-1-carboxylate]: affinity was put at a Ki of 114 nM.

For `Nc1cnc(-c2ccc(-c3ccccc3N)cc2F)cn1` [Example 178, 5-(2′-Amino-3-fluorobiphenyl-4-yl)pyrazin-2-amine], the Ki is around 1320 nM.

As for `Nc1cnc(-c2ccc(-c3ccccc3S(=O)(=O)NC3CC3)cc2F)cn1` [Example 89, 4′-(5-Aminopyrazin-2-yl)-N-cyclopropyl-3′-fluoroblphenyl-2-sulfonamide], affinity was put at a Ki of 4.9 nM.

Molecule `Nc1cnc(-c2ccc(-c3ccccc3S(=O)(=O)N3CCN(c4cnccn4)CC3)cc2F)cn1` [Example 176, 5-{3-Fluoro-2′-[(4-pyrazin-2-ylpiperazin-1-yl)sulfonyl]biphenyl-4-yl}pyrazin-2-amine] had a Ki of 0.5 nM.

As for `Nc1ncc(-c2ccc(-c3ccccc3S(=O)(=O)N3CC4(COC4)C3)cc2F)cn1` [Example 312, 5-(2′-(2-oxa-6-azaspiro[3.3]heptan-6-ylsulfonyl)-3-fluoro-[1,1′-biphenyl]-4-yl)pyrimidin-2-amine], the affinity corresponds to a Ki of 323 nM.

On to `Nc1cnc(-c2ccc(-c3ccccc3S(=O)(=O)N[C@H]3CC[C@@H](N)CC3)cc2F)cn1` [Example 134, N-(4-Aminocyclohexyl)-4′-(5-aminopyrazin-2-yl)-3′-fluorobiphenyl-2-sulfonamide], for which the inhibition constant (Ki) stood at 1.3 nM.

Molecule `CC[C@H](CO)NS(=O)(=O)c1ccccc1-c1ccc(-c2cnc(N)cn2)c(F)c1` [Example 86, 4′-(5-Aminopyrazin-2-yl)-3′-fluoro-N-[(1R)-1-(hydroxymethyl)propyl]biphenyl-2-sulfonamide] returned a Ki of 2.6 nM.

`Nc1cnc(-c2ccc(-c3ccccc3S(=O)(=O)NC3CCCC3)cc2F)cn1` [Example 14, 4′-(5-Aminopyrazin-2-yl)-N-cyclopentyl-3′-fluorobiphenyl-2-sulfonamide] had a Ki of 3.5 nM.

`CC(CO)(CO)NS(=O)(=O)c1ccccc1-c1ccc(-c2cnc(N)cn2)c(F)c1` [Example 147, 4′-(5-Aminopyrazin-2-yl)-3′-fluora-N-[2-hydroxy-1-(hydroxymethyl)-1-methylethyl]piphenyl-2-sulfonamide]: the inhibitory constant (Ki) was found to be 0.6 nM.

Regarding `CC(C)(C)OC(=O)NC1CCCN(S(=O)(=O)c2ccccc2-c2ccc(-c3cnc(N)cn3)c(F)c2)C1` (racemic) [Example 77, racemic tert-Butyl (1-{[4′-(5-aminopyrazin-2-yl)-3′-fluorobiphenyl-2-yl]sulfonyl}piperidin-3-yl)carbamate], the Ki was 3.2 nM.

`Nc1cnc(-c2ccc(-c3ccccc3S(=O)(=O)N[C@H](CO)Cc3ccccc3)cc2F)cn1` [Example 116, (3),4-(5-aminopyrazin-2-yl)-3′-fluoro-N-(1-hydroxy-3-phenylpropan-2-yl)-[1,1′-biphenyl]-2-sulfonamide] yielded a Ki of 0.7 nM.

For `C[C@@H](O)CNS(=O)(=O)Cc1ccccc1-c1ccc(-c2cnc(N)cn2)c(F)c1` [Example 228, (R)-1-[4′-(5-Aminopyrazin-2-yl)-3′-fluorobiphenyl-2-yl]-N-[(2S)-2-hydroxypropyl]methanesulfonamide], the Ki amounted to 1060 nM.

Take `Nc1cnc(-c2ccc(-c3ccccc3S(=O)(=O)N[C@H]3CCCNC3=O)cc2F)cn1` [Example 108, (S)-4′-(5-aminopyrazin-2-yl)-3′-fluoro-N-(2-oxopiperidin-3-yl)-[1,1′-biphenyl]-2-sulfonamide]: the affinity, expressed as Ki, was 9.5 nM.

As to `O=S(=O)(c1ccccc1-c1ccc(-c2cnc3[nH]ccc3n2)c(F)c1)N1CCCCC1` [Example 374, 2-[3-Fluoro-2′-(piperidin-1-ylsulfonyl)biphenyl-4-yl)-5H-pyrrolo[2,3-b]pyrazine], affinity was put at a Ki of 1.2 nM.

Consider `Nc1cnc(-c2ccc(-c3ccccc3S(=O)(=O)N3CC[C@H](O)C3)cc2F)cn1` [Example 184, (3S)-1-{[4′-(5-Aminopyrazin-2-yl)-3′-fluorobiphenyl-2-yl]sulfonyl}pyrrolidin-3-ol], for which affinity was put at a Ki of 8.9 nM.

`O=S1(=O)CCN(S(=O)(=O)c2ccccc2-c2ccc(-c3cnc4c(c3)OCCN4)c(F)c2)CC1` [Example 392] came in with an inhibition constant Ki of 0.9 nM.

The molecule `CC1(NS(=O)(=O)c2ccccc2-c2ccc(-c3ccc(N)nc3)c(F)c2)CCC1` [Example 353, 4′-(6-aminopyridin-3-yl)-3′-fluoro-N-(1-methylcyclobutyl)-[1,1′-biphenyl]-2-sulfonamide] had a Ki of 1.4 nM.

Turning to `O=C1NCC[C@@H]1NS(=O)(=O)c1ccccc1-c1ccc(-c2cnc3[nH]ccc3c2)c(F)c1` [Example 364, 3′-Fluoro-N-[(3S)-2-oxopyrrolidin-3-yl]-4′-(1H-pyrrolo[2,3-b]pyridin-5-yl)biphenyl-2-sulfonamide], the Ki came out at 2.5 nM.

The molecule `Nc1cnc(-c2ccc(-c3ccccc3S(=O)(=O)N3CCCC(F)(F)C3)cc2F)cn1` [Example 50, 5-{2′-[(3,3-Difluoropiperidin-1-yl)sulfonyl)-3-fluorobiphenyl-4-yl}pyrazin-2-amine] had a Ki of 1.3 nM.

`CC(C)(C)Sc1ccccc1-c1ccc(-c2cnc(N)cn2)c(F)c1` [Example 190, 5-[2′-(tert-Butylsulfanyl)-3-fluorobiphenyl-4-yl]pyrazin-2-amine] displayed a Ki of 66.2 nM.

The molecule `Nc1cnc(-c2ccc(-c3ccccc3S(=O)(=O)N[C@H]3CC[C@H](O)CC3)cc2F)cn1` [Example 110, trans 4′-(5-Aminopyrazin-2-yl)-3′-fluoro-N-(4-hydroxycyclohexyl)biphenyl-2-sulfonamide] came in with a Ki of 2.6 nM.

On to `Nc1ncc(-c2ccc(-c3ccccc3S(=O)(=O)N3CC(O)C3)cc2F)cn1` [Example 265, 1-{[4′-(2-Aminopyrimidin-5-yl)-3′-fluorobiphenyl-2-yl]sulfonyl}azetidin-3-ol trifluoroacetic acid salt], for which the inhibitory constant (Ki) is 35.5 nM.

The molecule `Nc1cnc(-c2ccc(-c3ccccc3S(=O)(=O)N3CCC(CCO)CC3)cc2F)cn1` [Example 69, 2-(1-{[4′-(5-Aminopyrazin-2-yl)-3′-fluorobiphenyl-2-yl]sulfonyl}piperidin-4-yl)ethanol] showed an inhibition constant (Ki) of 0.9 nM.

For `CC(C)(C)NS(=O)(=O)c1ccccc1-c1ccc(-c2ccc(N)nc2)c(F)c1` [Example 342], the affinity, expressed as Ki, was 1.8 nM.

On to `Nc1cnc(-c2ccc(-c3ccccc3NS(=O)(=O)N3CCCC3)cc2F)cn1` [Example 181, N-[4′-(5-Aminopyrazin-2-yl)-3′-fluorobiphenyl-2-yl]pyrroildine-1-sulfonamide], for which the Ki was 6.7 nM.

The assay is the same for the next values; noted with them: human FLAP wild type, Table 6 (additional runs).
`Nc1nc(-c2ccc(-c3ccccc3S(=O)(=O)N3CCCC3)cc2F)cs1` [Example 579, 4-[3-Fluoro-2′-(pyrrolidin-1-ylsulfonyl)biphenyl-4-yl]-1,3-thiazol-2-amine]: the Ki came to 95.1 nM.

In the case of `C[C@H](NS(=O)(=O)c1ccccc1-c1ccc(-c2cnc(N)nc2)nc1)C(F)(F)F` [Example 685, 2-[6-(2-Aminopyrimidin-5-yl)pyridin-3-yl]-N-[(1S)-2,2,2-trifluoro-1-methylethyl]benzenesulfonamide trifluoroacetic acid salt], the Ki was 59.2 nM.

As to `N#Cc1nc(-c2ccc(-c3ccccc3S(=O)(=O)NCCO)cc2F)cnc1N` [Example 413, 4′-(5-Amino-6-cyanopyrazin-2-yl)-3′-fluoro-N-(2-hydroxyethyl)biphenyl-2-sulfonamide], the inhibitory constant (Ki) stood at 18.6 nM.

`Nc1ncc(-c2ccc(-c3cccnc3S(=O)(=O)C3CCS(=O)(=O)CC3)cc2F)cn1` [Example 819, 4-((3-(4-(2-aminopyrimidin-5-yl)-3-fluorophenyl)pyridine-2-yl)sulfonyl)tetrahydro-2H-thiopyran 1,1-dioxide] had an inhibitory constant (Ki) of 74.3 nM.

For `COc1ccccc1-c1ccc(-c2cnc(N)cn2)c(F)c1` [Example 473, 5-(3-Fluoro-2′-methoxybiphenyl-4-yl)pyrazin-2-amine], the inhibition constant (Ki) came out at 73 nM.

For `CS(=O)(=O)c1cc(F)ccc1-c1ccc(-c2cnc3[nH]ccc3n2)c(F)c1` [Example 489, 2-[3,4′-Difluoro-2′-(methylsulfonyl)biphenyl-4-yl]-5H-pyrrolo[2,3-b]pyrazine], the Ki came to 19.6 nM.

The molecule `CC(C)(C)NS(=O)(=O)c1ccccc1-c1ccc(-c2cc(N)c3[nH]ccc3c2)c(F)c1` [Example 458, 4′-(7-Amino-1H-indol-5-yl)-N-tert-butyl-3′-fluorobiphenyl-2-sulfonamide] showed a Ki of 4.2 nM.

Molecule `CC(O)CNS(=O)(=O)c1ccccc1-c1ccc(-c2cnc(N)c(C#N)n2)c(F)c1` (stereo in doubt) [Example 415, 4′-(5-Amine-6-cyanopyrazin-2-yl)-3′-fluoro-N-[(R)-2-hydroxypropyl]biphenyl-2-sulfonamide] showed a Ki of 10.9 nM.

For the molecule `Nc1cnc(-c2ccc(-c3ccccc3Oc3cc(N4CCC4)ncn3)cc2F)cn1` [Example 539, 5-{2′-[(6-Azetidin-1-ylpyrimidin-4-yl)oxy]-3-fluorobiphenyl-4-yl}pyrazin-2-amine], the Ki worked out at 1.6 nM.

`CC(C)(C)NS(=O)(=O)c1ccccc1-c1ccc(-c2cnc3ncccc3c2)c(F)c1` [Example 419, N-tert-Butyl-3′-fluoro-4′-(1,8-naphthyridin-3-yl)biphenyl-2-sulfonamide] registered a Ki of around 1370 nM.

`Nc1cnc(-c2ccc(-c3ccc(C(F)(F)F)cc3Oc3ccnc(N)n3)cc2F)cn1` [Example 555, 4-{[4′-(5-Aminopyrazin-2-yl)-3′-fluoro-4-(trifluoromethyl)biphenyl-2-yl]oxy}pyrimidin-2-amine]: the affinity, expressed as Ki, was 1.6 nM.

The assay is the same for the next values; noted with them: human FLAP wild type, a calculated value of 0.000 indicates Ki less than 1 nM.
As to `Nc1cnc(-c2ccc(-c3ccccc3S(=O)(=O)N3CCN(c4cnccn4)CC3)cc2F)cn1` [Example 176, 5-{3-Fluoro-2′-[(4-pyrazin-2-ylpiperazin-1-yl)sulfonyl]biphenyl-4-yl}pyrazin-2-amine], the Ki is below 1 nM.
